This note sets out measurements from patent US20230192638A1, “POLYPHENOLS DERIVATIVES” (Epirium Bio Inc., priority 2021, published 2023).

The test system of the assay is PGC-1α. Put plainly: Single point PGC-1α assay (in-cell ELISA in differentiated C2C12 myotubes). The assay is classed as cell-based. The conditions noted are these: Mus musculus, each compound tested at 0.01 nM, DMSO control as 100 %. On the procedure: Culture conditions: DMEM containing 25 mM glucose with 10 % FBS supplementation; grown at 37° C. and 5 % CO2.
Assay Conditions: C2C12 cells were cultured in DMEM supplemented in 10 % FBS up to 80 % confluence. The cells were further trypsinized and seeded into a 96 well plate at a density of 5000 cells/well (well volume – 100 µL) (Day 0). Following attachment, the cells were allowed to reach 80-90% confluence in the plate (typically 48 hours post seeding) and further differentiated using DMEM + 2 % Horse Serum (200 µL/well). The media was changed every day or at least every alternate day for 5 days to allow myoblasts to differentiate into myotubes. On day 7 (post seeding), the cells were treated with standards and test compounds for PGC-1α assay.
PGC-1α assay: For the detection of PGC-1α, the cells were incubated with 0.5 µg/ml primary antibody (Merck, WH0010891M3) in PBS-T containing 5 % BSA at 4° C. overnight. The cells were then washed three times with PBS-T for 5 minutes and incubated with 1:1000 dilution secondary antibody (Anti- rabbit IgG, HRP-linked Antibody, Cell Signaling) in PBS-T with 1 % BSA for 1 hour at RT. Cells were washed three times with PBS-T for 5 minutes The cells were incubated with 100 µl TMB substrate solution for 30 minutes and the reaction was stopped with 100 µl of 2N H2SO4. Then the plate was read at 450 nm using ELISA plate reader and absorbance recorded. % activity was calculated using DMSO control as 100 %. (For plate optical density calculations, a background correction was taken at 540 nm). Each compound was tested at a concentration of 0.01 nM.

Where [1] appears, read: average, count 1, read-out: Single point PGC1-Alpha Assay: Average Activity (%).
Where [2] appears, read: read-out: Single point PGC1-Alpha Assay: Activity (%).

Like-named read-outs stand apart in the source and are kept apart here.

As to `Cc1cc(O)cc(C2Oc3cc(O)cc(O)c3CC2O)c1` (stereo not drawn), the activity at 10 pM worked out at 109% under setting [1] and 109% under setting [2].

For `Cc1cc(O)cc([C@H]2Oc3cc(O)cc(O)c3C[C@H]2O)c1`, the activity at 10 pM runs as follows: under setting [1], 103%; under setting [2], 103%.

Turning to `Cc1cc(O)cc([C@@H]2Oc3cc(O)cc(O)c3C[C@@H]2O)c1`, the activity at 10 pM by setting is: under setting [1], 114%; under setting [2], 114%.

`Oc1cc(O)c2c(c1)O[C@@H](c1ccc(F)c(O)c1)[C@@H](O)C2`: the activity at 10 pM reads like this: under setting [1], 104%; under setting [2], 104%.

`COc1cc([C@@H]2Oc3cc(O)cc(O)c3C[C@@H]2O)ccc1O`: the activity at 10 pM under setting [1] is 124% and the activity at 10 pM under setting [2] amounted to 124%.

`Oc1cc(F)cc([C@@H]2Oc3cc(O)cc(O)c3C[C@@H]2O)c1`: the activity at 10 pM stood at 117% under setting [1] and 117% under setting [2].
